# Reference: patent US20230292758A1, “COMPOSITIONS AND METHODS FOR CONTROLLLING FUNGAL DISEASES IN PLANTS” (priority 2020, published 2023)
# Legend:
# [1] = Relative lipopeptide levels in supernatants by LC-MS; type: physicochemical; settings: Example 4
# Description: Bacillus subtilis QST713 WB and Bacillus subtilis QST713 BC were prepared as described in the previous examples. […] Combinations of Bacillus subtilis QST713 BC with 3% (w/w) ANS or 5% (w/w) ANS were also prepared. […] To determine relative amounts of lipopeptides in the combinations samples were centrifuged to obtain the supernatant layer relatively free of spores. It was then filtered and separated on an analytical HPLC column and detected with a mass spectrometer (i.e., via LC-MS).
# Peaks containing lipopeptides were identified by analysis of mass to charge (m/z) ratios. For example, “Iturin_1043_B” corresponds with an iturin peak in which the predominant m/z ratio detected by the mass spectrometer was 1043 corresponding with the molecular formula of C48H74N12O14. Relative quantification was performed by comparing the peak areas in the samples to those in an extract of a Bacillus subtilis QST713 WB used across different experiments as a reference standard.
# For purposes of comparison, an aliquot of the Bacillus subtilis QST713 WB that was present in the ANS combinations was also analyzed for relative lipopeptides levels. The Bacillus subtilis QST713 WB (the “Extracted” sample in FIG. 2) and a supernatant of the Bacillus subtilis QST713 WB removed after centrifugation (the “Supernatant” sample in FIG. 2) were analyzed via LC-MS. […]
# Botrytis cinerea = Botrytis cinerea disease control assay on treated plants inoculated with spore suspension; type: in vivo; settings: Example 1; bell pepper plants
# Description: Subsequently, the plants were inoculated with a spore suspension of Botrytis cinerea. Several days later when disease was evident in the untreated control plants the plants were evaluated for percent disease control. The results shown in Table 1 are the average values of four independent measurements. A relatively high disease pressure affecting 100% of plants in the untreated control group was present. Percent disease control was scored with 0% indicating no difference in disease from the untreated control plants and 100% indicating no observable disease in the plants. […]
# Bacillus subtilis QST713 WB and BC were prepared as described in the previous examples. […] Subsequently, the plants were inoculated with a spore suspension of Botrytis cinerea and scored for percent disease control when disease was evident in 100% of the untreated control plants. […]
# Bacillus subtilis QST713 WB was prepared as described in the previous examples. […] Four replicate measurements of disease control were evaluated for each treatment, and the average values are presented in the plot shown in FIG. 4.
# Each of the combinations was also evaluated for antifungal activity using the Botrytis cinerea assay described in the previous examples.
substance,measurement,setting,value
sodium diisopropyl naphthalene sulfonate [ANS],relative amounts of iturins in the supernatant,[1]; 3% ANS in WB compared with 3% Adjuvant 1,about two to three times greater
same,"lipopeptides in the supernatants, in words","[1]; increase from 3% to 5% of ANS, WB and BC",corresponding increase of lipopeptides
same,"antifungal activity / disease control, in words",Botrytis cinerea,no observable disease control
